5 compounds from the NIST ThermoML archive (doi:10.1016/j.tca.2013.04.021) can be followed below.

Molecules are shown by their SMILES. ± gives the expanded uncertainty stated by the source.

Data set [1] can be described thus: Molar enthalpy of transition or fusion. The conditions noted are these: Crystal; DSC.
For data set [2] the following is noted: Crystal; DTA.

Take `CCN(C(=O)N(CC)c1ccccc1)c1ccccc1` [1,3-diethyl-1,3-diphenylurea]: in data set [1], the “Molar enthalpy of transition or fusion” value was determined as 8.01 ± 0.215 kcal/mol. The Normal melting temperature in data set [2] is 71.87 ± 1.1 °C.
On to `CN(C(=O)N(C)c1ccccc1)c1ccccc1` [1,3-dimethyl-1,3-diphenylurea], for which, in data set [1], the “Molar enthalpy of transition or fusion” value stood at 7.91 ± 0.215 kcal/mol. Further, the Normal melting temperature in data set [2] turned out to be 120.00 ± 1.1 °C.
Regarding `CC(=O)OCCNc1ccc([N+](=O)[O-])cc1` [2-[(4-nitrophenyl)amino]ethanol 1-acetate], in data set [1], the “Molar enthalpy of transition or fusion” value turned out to be 4.97 ± 0.191 kcal/mol. The Normal melting temperature in data set [2] is 113.87 ± 1.1 °C.
In the case of `CCNc1ccc([N+](=O)[O-])cc1` [N-ethyl-4-nitroaniline], in data set [1], the “Molar enthalpy of transition or fusion” value was determined as 5.43 ± 0.191 kcal/mol. In addition, the Normal melting temperature in data set [2] is 95.06 ± 1.1 °C.
With `c1ccc(Nc2ccccc2)cc1` [diphenylamine], the “Molar enthalpy of transition or fusion” value in data set [1] was determined as 4.71 ± 0.167 kcal/mol. Also, the Normal melting temperature in data set [2] is 53.50 ± 1.1 °C.
